From ChEMBL document CHEMBL1153327, “M3 muscarinic acetylcholine receptor antagonists: SAR and optimization of bi-aryl amines” (Bioorg Med Chem Lett, 2009) come the findings set out here.

The structures appear in SMILES notation. Activity calls are given as the source filed them. The rule behind the calls is not given here. Where only a bound is given, the exact number is not on record here.

In one data set the target is T1, Muscarinic acetylcholine receptor M3 (Homo sapiens, UniProt P20309). Description: Antagonist activity at human recombinant muscarinic M3 receptor expressed in CHO cells assessed as inhibition of acetylcholine-induced calcium mobilization by FLIPR assay. The class given is functional, cell-based.
T1 sequence (P20309 whole entry): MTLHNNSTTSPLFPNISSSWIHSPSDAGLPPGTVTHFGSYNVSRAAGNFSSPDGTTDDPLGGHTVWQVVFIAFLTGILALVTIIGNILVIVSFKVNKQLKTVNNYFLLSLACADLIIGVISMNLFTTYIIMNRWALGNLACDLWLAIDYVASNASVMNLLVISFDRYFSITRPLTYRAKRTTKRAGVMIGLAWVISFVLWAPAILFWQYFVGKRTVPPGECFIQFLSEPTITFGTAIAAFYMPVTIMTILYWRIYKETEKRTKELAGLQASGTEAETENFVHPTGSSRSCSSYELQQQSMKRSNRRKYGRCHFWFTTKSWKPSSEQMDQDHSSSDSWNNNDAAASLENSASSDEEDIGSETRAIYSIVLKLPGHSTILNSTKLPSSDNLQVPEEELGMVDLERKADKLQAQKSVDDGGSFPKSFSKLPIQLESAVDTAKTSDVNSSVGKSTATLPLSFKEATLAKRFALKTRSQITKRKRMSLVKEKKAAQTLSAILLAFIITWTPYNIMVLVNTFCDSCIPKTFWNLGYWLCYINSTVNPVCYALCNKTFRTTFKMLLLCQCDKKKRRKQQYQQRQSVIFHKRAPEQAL
Conditions: not given
(A change in cytosolic calcium serves as a functional read-out for many receptors and channels.)
Usually IC50 stands for the concentration at which inhibition is half-maximal. `C[C@H]1CN(Cc2cccc(-c3cccc(CNC(=O)c4ccc5c(c4)OCO5)c3)n2)CCN1`: the IC50 is 39.8 nM.
On the same count and under the same terms, to `CCOc1cccc(C(=O)NCc2cccc(-c3cccc(CN4CCNCC4)c3)c2)c1` belongs 10 nM; to `O=C1CN(Cc2cccc(-c3cccc(CNC(=O)c4ccc5c(c4)OCO5)c3)c2)CCN1`, above 10000 nM; to `N#Cc1ccccc1C(=O)NCc1cccc(-c2cccc(CN3CCNCC3)c2)c1`, 316 nM.
The same measure, in the same setting: to `CN1CCN(Cc2cccc(-c3cccc(CNC(=O)c4ccc5c(c4)OCO5)c3)c2)CC1` belongs 501 nM; to `CN(C)c1cccc(C(=O)NCc2cccc(-c3cccc(CN4CCNCC4)c3)c2)c1`, 200 nM.
For `O=S(=O)(NCc1cccc(-c2cccc(CN3CCNCC3)c2)c1)c1ccc2c(c1)OCO2`, the IC50 was 251 nM.
Take `CC(=O)N1CCN(Cc2cccc(-c3cccc(CNC(=O)c4ccc5c(c4)OCO5)c3)c2)CC1`: the IC50 was 3980 nM.
Same read-out and setting: next, `CC(=O)Nc1cccc(C(=O)NCc2cccc(-c3cccc(CN4CCNCC4)c3)c2)c1`: 200 nM.
The same measure, in the same setting: next, `N#Cc1cccc(C(=O)NCc2cccc(-c3cccc(CN4CCNCC4)c3)c2)c1`: 50.1 nM; `O=C(NCc1cc(-c2cccc(CN3CCNCC3)c2)ccc1F)c1ccc2c(c1)OCO2`: 251 nM; `COc1ccccc1C(=O)NCc1cccc(-c2cccc(CN3CCNCC3)c2)c1`: 501 nM.
Consider `O=C(NCc1cccc(-c2ccc(F)c(CN3CCNCC3)c2)c1)c1ccc2c(c1)OCO2`, for which the IC50 was 200 nM.
For `O=C(NCc1ccc(F)c(-c2cccc(CN3CCNCC3)c2)c1)c1ccc2c(c1)OCO2`, the IC50 was 6.31 nM.
Still for that read-out and setting: next, `C[N+]1(Cc2cccc(-c3cccc(CNC(=O)c4ccc5c(c4)OCO5)c3)c2)CCNCC1`: above 10000 nM; `Nc1cccc(C(=O)NCc2cccc(-c3cccc(CN4CCNCC4)c3)c2)c1`: 2000 nM; `O=C(NCc1cccc(-c2cccc(CN3CCCCC3)c2)c1)c1ccc2c(c1)OCO2`: 6310 nM.
In the case of `O=C(NCc1cccc(-c2cccc(CN3CCNCC3)c2)c1F)c1ccc2c(c1)OCO2`, the IC50 was 2510 nM.
Regarding `CCc1cccc(C(=O)NCc2cccc(-c3cccc(CN4CCNCC4)c3)c2)c1`, the IC50 is 316 nM.
As for `Cc1c(CNC(=O)c2ccc3c(c2)OCO3)cccc1-c1cccc(CN2CCNCC2)c1`, the IC50 is above 10000 nM.
On to `COc1ccc(C(=O)NCc2cccc(-c3cccc(CN4CCNCC4)c3)c2)cc1`, for which the IC50 is 501 nM.
In the case of `CS(=O)(=O)c1cccc(C(=O)NCc2cccc(-c3cccc(CN4CCNCC4)c3)c2)c1`, the IC50 was 20 nM.
Same read-out and setting: to `O=C(NCc1cccc(-c2cccc(CN3CCNCC3)c2)c1)c1cccc(O)c1` belongs 2000 nM; to `Cc1ccc(-c2cccc(CN3CCNCC3)c2)cc1CNC(=O)c1ccc2c(c1)OCO2`, 3160 nM.
As for `CC1CN(Cc2cccc(-c3cccc(CNC(=O)c4ccc5c(c4)OCO5)c3)c2)CCN1` (stereo unspecified), the IC50 was 10 nM.
As to `O=C(NCc1cccc(-c2cccc(CN3CCNCC3)c2)c1)c1cccc(OC(F)(F)F)c1`, the IC50 is 501 nM.
The same measure, in the same setting: next, `COc1ccc(CN2CCNCC2)cc1-c1cccc(CNC(=O)c2ccc3c(c2)OCO3)c1`: 1260 nM.
In the case of `CN1CCN(Cc2cccc(C(=O)NCc3cccc(-c4cccc(CN5CCNCC5)c4)c3)c2)CC1`, the IC50 is 3.98 nM.
Take `O=C(NCc1cccc(-c2cccc(CN3CCOCC3)c2)c1)c1ccc2c(c1)OCO2`: the concentration for half-maximal inhibition (IC50) is above 10000 nM.
Still for that read-out and setting: next, `C[C@H]1CN(Cc2cccc(-c3cccc(CNC(=O)c4ccc5c(c4)OCO5)c3)c2)CCN1`: 5.01 nM; `COc1cccc(C(=O)NCc2cccc(-c3cccc(CN4CCNCC4)c3)c2)c1`: 79.4 nM; `CC(=O)c1cccc(C(=O)NCc2cccc(-c3cccc(CN4CCNCC4)c3)c2)c1`: 10 nM.
On the same count and under the same terms, to `O=C(NCc1cccc(-c2cccc(CN3CCNCC3)c2)c1)c1ccc(C(F)(F)F)cc1` belongs 631 nM; to `COc1ccc(CNC(=O)c2ccc3c(c2)OCO3)cc1-c1cccc(CN2CCNCC2)c1`, 31.6 nM.
Same read-out and setting: next, `N#Cc1ccc(C(=O)NCc2cccc(-c3cccc(CN4CCNCC4)c3)c2)cc1`: 79.4 nM.
As to `O=C(NCc1cccc(-c2cccc(CN3CCNCC3)c2)c1)c1cccc(F)c1`, the IC50 is 794 nM.
The same measure, in the same setting: to `O=C(NCc1cccc(-c2cccc(CN3CCNCC3)c2)c1)c1ccccc1Cl` belongs 1000 nM; to `COc1ccc(-c2cccc(CNC(=O)c3ccc4c(c3)OCO4)c2)cc1CN1CCNCC1`, 316 nM.
On the same count and under the same terms, to `O=C(NCc1cccc(-c2cccc(CN3CCCNCC3)c2)c1)c1ccc2c(c1)OCO2` belongs 316 nM; to `CN1CCCN(Cc2cccc(-c3cccc(CNC(=O)c4ccc5c(c4)OCO5)c3)c2)CC1`, 631 nM; to `O=C(NCc1cccc(-c2cccc(C(=O)N3CCNCC3)c2)c1)c1ccc2c(c1)OCO2`, 5010 nM.
Still for that read-out and setting: next, `O=C(NCc1cccc(-c2cccc(CN3CCNCC3)c2)c1)c1ccccc1C(F)(F)F`: 3980 nM; `C[N+]1(C)CCN(Cc2cccc(-c3cccc(CNC(=O)c4ccc5c(c4)OCO5)c3)c2)CC1`: 2510 nM.
On to `CCN1CCN(Cc2cccc(-c3cccc(CNC(=O)c4ccc5c(c4)OCO5)c3)c2)CC1`, for which the IC50 was 1580 nM.
Same read-out and setting: to `COC(=O)c1cccc(C(=O)NCc2cccc(-c3cccc(CN4CCNCC4)c3)c2)c1` belongs 20 nM.
For the compound `O=C(NCc1cccc(-c2cccc(CN3CCNCC3)c2)c1)c1cccc(C(F)(F)F)c1`, the IC50 was 50.1 nM.
As for `O=C(NCc1cccc(-c2cccc(CN3CCNCC3)c2)c1)c1cccc(Cl)c1`, the IC50 is 100 nM.
Still for that read-out and setting: to `O=C(Nc1cccc(-c2cccc(CN3CCNCC3)c2)c1)c1ccc2c(c1)OCO2` belongs 6310 nM; to `Cc1cccc(C(=O)NCc2cccc(-c3cccc(CN4CCNCC4)c3)c2)c1`, 251 nM; to `C[C@H]1CN(Cc2ccc(-c3cccc(CNC(=O)c4ccc5c(c4)OCO5)c3)s2)CCN1`, 501 nM.
Turning to `O=C(NCc1cccc(-c2cccc(CN3C[C@@H]4C[C@H]3CN4)c2)c1)c1ccc2c(c1)OCO2`, the IC50 was 79.4 nM.
Regarding `O=C(NCc1cccc(-c2cccc(CN3CCNCC3)c2)c1)c1cccc(Oc2ccccc2)c1`, the IC50 is 1260 nM.
Still for that read-out and setting: next, `C[C@@H]1CN(Cc2cccc(-c3cccc(CNC(=O)c4ccc5c(c4)OCO5)c3)c2)CCN1`: 50.1 nM.
For the compound `O=C(NCc1cccc(-c2cccc(CN3CCNCC3)c2)c1)c1ccc(Cl)cc1`, the IC50 was 316 nM.
As for `O=C(NCc1cccc(-c2cccc(CN3CCNCC3)c2)c1)Nc1ccc2c(c1)OCO2`, the concentration for half-maximal inhibition (IC50) is 7940 nM.

The next data set concerns the target T1, Muscarinic acetylcholine receptor M3. Description: Antagonist activity at human recombinant muscarinic M3 receptor expressed in CHO cells assessed as inhibition of acetylcholine-induced calcium mobilization by FLIPR based single concentration kinetic assay. The class given is functional, cell-based. The note with it: read-out: pA2 (converted).
For `C[C@H]1CN(Cc2cccc(-c3cc(CNC(=O)c4cccc(CN(C)C)c4)ccc3F)c2)CCN1`, the Kb is 3.16 nM.
On the same count and under the same terms, next, `C[C@H]1CN(Cc2cccc(-c3cc(CNC(=O)c4cccc(CN5CC[N+](C)(C)CC5)c4)ccc3F)c2)CCN1.[I-]`: 0.158 nM.
Regarding `C[C@H]1CN(Cc2cccc(-c3cc(CNC(=O)c4cccc(CN5CCCCC5)c4)ccc3F)c2)CCN1`, the Kb is 0.631 nM.
`CCC[N+]1(C)CCN(Cc2cccc(C(=O)NCc3ccc(F)c(-c4cccc(CN5CCN[C@@H](C)C5)c4)c3)c2)CC1`: the Kb is 0.1 nM.
The same measure, in the same setting: to `C[C@H]1CN(Cc2cccc(-c3cc(CNC(=O)c4cccc(CN5CCCN(C)CC5)c4)ccc3F)c2)CCN1` belongs 0.251 nM; to `C[C@H]1CN(Cc2cccc(-c3cc(CNC(=O)c4cccc(CN5CCN(CCCO)CC5)c4)ccc3F)c2)CCN1`, 0.0631 nM; to `C[C@H]1CN(Cc2cccc(-c3cc(CNC(=O)c4cccc(CN(C)CCCN(C)C)c4)ccc3F)c2)CCN1`, 0.2 nM.
As for `C[C@H]1CN(Cc2cccc(-c3cc(CNC(=O)c4cccc(CN5CC[N+](C)(Cc6ccccc6)CC5)c4)ccc3F)c2)CCN1`, the Kb is 0.0794 nM.
Regarding `C[C@H]1CN(Cc2cccc(-c3cc(CNC(=O)c4cccc(CN5CC[N+]6(CCCCC6)CC5)c4)ccc3F)c2)CCN1`, the Kb is 0.126 nM.
Take `C[C@H]1CN(Cc2cccc(-c3cc(CNC(=O)c4cccc(CN5CCN(C=O)CC5)c4)ccc3F)c2)CCN1`: the Kb is 0.0794 nM.
Consider `C[C@H]1CN(Cc2cccc(-c3cc(CNC(=O)c4cccc(CN5CCN(C)CC5)c4)ccc3F)c2)CCN1`, for which the Kb was 0.0316 nM.
Turning to `C[C@H]1CN(Cc2cccc(-c3cc(CNC(=O)c4cccc(CN5CCOCC5)c4)ccc3F)c2)CCN1`, the Kb is 0.126 nM.
As to `C[C@H]1CN(Cc2cccc(-c3cc(CNC(=O)c4cccc(C[N+]5(C)CCNCC5)c4)ccc3F)c2)CCN1`, the Kb is 3.16 nM.

Test system in a further data set: not listed separately
Description: Permeability across artificial phospholipid membrane at pH 7.05 by HPLC. It is filed as ADME. Particulars: not told, read-out: permeability.
`C[C@H]1CN(Cc2cccc(-c3cc(CNC(=O)c4cccc(CN5CC[N+](C)(C)CC5)c4)ccc3F)c2)CCN1.[I-]`: the Papp is below 0.3 ×10⁻⁶ cm/s.

For the next data set, the target named is T2, Muscarinic acetylcholine receptor M1 (Homo sapiens, UniProt P11229).
T2 sequence (P11229 whole entry): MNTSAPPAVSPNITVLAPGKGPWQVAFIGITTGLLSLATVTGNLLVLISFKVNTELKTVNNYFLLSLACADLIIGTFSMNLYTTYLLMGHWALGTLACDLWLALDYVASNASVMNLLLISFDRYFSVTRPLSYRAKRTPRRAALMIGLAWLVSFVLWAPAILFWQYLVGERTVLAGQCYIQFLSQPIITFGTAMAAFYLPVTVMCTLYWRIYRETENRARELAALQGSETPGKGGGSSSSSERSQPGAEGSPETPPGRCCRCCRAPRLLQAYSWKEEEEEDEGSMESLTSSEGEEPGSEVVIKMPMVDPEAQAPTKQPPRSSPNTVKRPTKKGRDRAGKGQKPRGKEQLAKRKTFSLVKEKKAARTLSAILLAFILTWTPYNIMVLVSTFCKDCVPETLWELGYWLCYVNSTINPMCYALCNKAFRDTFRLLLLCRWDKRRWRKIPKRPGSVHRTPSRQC
Description: Antagonist activity at human recombinant muscarinic M1 receptor expressed in CHO cells assessed as inhibition of acetylcholine-induced calcium mobilization by FLIPR assay. It is filed as functional, cell-based. Particulars: read-out: pA2 (converted).
`C[C@H]1CN(Cc2cccc(-c3cc(CNC(=O)c4cccc(CC5CCNCC5)c4)ccc3F)c2)CCN1`: the Kb is 0.2 nM.

In a further data set the test system is Mus musculus. Description: Inhibition of methacholine-induced bronchoconstriction in intranasally dosed BALB/c mouse assessed as enhanced pause pretreated before methacholine challenge. The class given is functional, organism-based.
Conditions: not given
On to `C[C@H]1CN(Cc2cccc(-c3cc(CNC(=O)c4cccc(CC5CCNCC5)c4)ccc3F)c2)CCN1`, for which the inhibition result was “Active”.
